Results published in article PMC5831498 (Virus research, 2018).
Like-named read-outs stand apart in the source and are kept apart here. Marks after values point to notes of the source that are not given here. Bridge positions count the residues as written; N and C are the ends. Square brackets hold non-standard residues; d marks the D form. Peptide text beside a SMILES is read from it. * marks the point of attachment. Ileψ(thiazoline)Cys = CC[C@H](C)[C@H](N)C1=N[C@H](C(=O)*)CS1; dOrn = NCCC[C@@H](N)C(=O)O

How the values were obtained:
[1] = tested on: Human influenza A virus (A/WS/33 [H1N1]); test: microbe, parasite or virus in culture; assay type: cell-based; details: for SI for A/WS/33 (selectivity index): CC50/EC50, MDCK cells; for EC50: read-out: EC50 A/WS/33; for inhibition of replication of A/WS/33 (in words): MDCK cells
[2] = tested on: Swine influenza A virus (A/swine/OH/511445/2007 [H1N1], Oh7); test: microbe, parasite or virus in culture; assay type: cell-based; details: read-out: EC50 A/swine/OH/2007
[3] = tested on: influenza B virus (B/Lee/40); test: Antiviral assay, virus titration by TCID50, MDCK cells; assay type: cell-based; details: for EC50: Influenza B virus, MDCK, read-out: EC50 B/Lee/40; for inhibition of replication of B/Lee/40 (in words): MDCK cells
[4] = Nonspecific cytotoxicity, CytoTox 96 assay; assay type: cell-based, canine; details: dog, MDCK cells
[5] = molecular target: PDI1 enzyme (Homo sapiens, UniProt P07237); test: ProteoStat PDI assay; assay type: biochemical; details: for PDI1 activity relative to mock: mock = 100, SD in parentheses; for effect on PDI1 activity (in words): at 10 or 50 µM
[6] = tested on: MDCK cells; test: Nonspecific cytotoxicity, CytoTox 96 assay; assay type: cell-based, canine; details: 24 hr treatment, SD in parentheses
[7] = tested on: Group A rotavirus SA11; test: Rotavirus replication in MA104 cells; assay type: cell-based
[8] = tested on: A/WS/33; assay type: cell-based, influenza A virus
[9] = Influenza A virus, H1N1, MDCK, in Sus scrofa

PDI1 enzyme, sequence (P07237 18-508): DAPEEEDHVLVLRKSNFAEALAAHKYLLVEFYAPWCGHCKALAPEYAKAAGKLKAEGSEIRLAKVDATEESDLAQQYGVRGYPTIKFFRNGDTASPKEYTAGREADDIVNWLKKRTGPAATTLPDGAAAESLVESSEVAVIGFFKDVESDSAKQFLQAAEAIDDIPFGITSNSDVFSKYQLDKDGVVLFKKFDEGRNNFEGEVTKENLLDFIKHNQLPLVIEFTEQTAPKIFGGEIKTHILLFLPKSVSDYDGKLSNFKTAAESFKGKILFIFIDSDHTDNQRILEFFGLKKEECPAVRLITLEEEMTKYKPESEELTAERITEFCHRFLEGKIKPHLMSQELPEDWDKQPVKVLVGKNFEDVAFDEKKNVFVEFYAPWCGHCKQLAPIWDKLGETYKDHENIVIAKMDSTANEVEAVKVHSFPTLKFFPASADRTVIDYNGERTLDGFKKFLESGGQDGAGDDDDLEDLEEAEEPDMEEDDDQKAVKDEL

| Compound | SI for A/WS/33 (selectivity index) [1] | EC50 ([1]; Influenza A virus, H1N1, MDCK) | EC50 [2, 9] | EC50 [3] | CC50 at 24 h [4] | PDI1 activity relative to mock ([5]; compound at 10 µM) | PDI1 activity relative to mock ([5]; compound at 50 µM) | EC50 [1] | CC50 [6] | inhibition of replication of A/WS/33 (in words) [1] | inhibition of replication of B/Lee/40 (in words) [3] | EC50 ([7]; read-out: EC50 rotavirus SA11 replication, MA104 cells) | reduction of viral proteins (NP or M1), Western blot [8] | effect on PDI1 activity (in words) [5] | EC50 ([7]; Rotavirus A, MA104, read-out: EC50 rotavirus SA11 replication) | EC50 [2] |
| --- | --- | --- | --- | --- | --- | --- | --- | --- | --- | --- | --- | --- | --- | --- | --- | --- |
| CC(=O)Oc1ccccc1C(=O)Nc1ncc([N+](=O)[O-])s1 [NTZ, nitazoxanide] | 16 | 0.8 µM | 1.3 µM | 1.5 µM | 12.8 µM | 81 (2) ^* % | 65 (4) ^* % | – | – | – | – | – | – | – | – | – |
| CC(C)(C)N([O])C(C)(C)C [Di-tert-butyl nitroxide (DTBN), Di-tert-butyl nitroxide] | – | – | – | – | – | 67 (6) ^* % | 25 (9) ^* % | 210 µM | > 1000 µM | – | – | – | – | – | – | – |
| C=CCNC1=C2C[C@@H](C)C[C@H](OC)[C@H](O)[C@@H](C)/C=C(\C)[C@H](OC(N)=O)[C@@H](OC)/C=C\C=C(/C)C(=O)NC(=CC1=O)C2=O [17-AAG, 17-N-Allylamino-17-demethoxygeldanamycin] | – | – | – | – | – | – | – | > 10 µM | – | did not show any inhibitory activity | did not show any inhibitory activity | < 1 µM | – | – | – | – |
| C/C1=C/[C@H](O)C(C)(C)CCC/C(C)=C/C[C@H]1OC(=O)c1ccc(O)cc1 [Juniferdin, juniferdin] | 8.8 | 1.5 µM | 1.8 µM | 3.1 µM | 13.2 µM | 41 (5) ^* % | 6 (4) ^* % | – | – | – | – | – | dose-dependent | – | – | – |
| COC1=C2C[C@@H](C)C[C@H](OC)[C@H](O)[C@@H](C)/C=C(\C)[C@H](OC(N)=O)[C@@H](OC)/C=C\C=C(/C)C(=O)NC(=CC1=O)C2=O [GDA, geldanamycin] | – | > 10 µM | > 10 µM | > 10 µM | – | 102 (5) % | 96 (2) % | – | – | did not show any inhibitory activity | did not show any inhibitory activity | – | – | little effect | < 1 µM | – |
| CCOC(=O)C1=C[C@@H](OC(CC)CC)[C@H](NC(C)=O)[C@@H](N)C1 [Oseltamivir, oseltamivir phosphate] | >660 | 0.15 µM | 0.5 µM | 1.1 µM | > 100 µM | 103 (6) % | 95 (5) % | – | – | potently inhibited | potently inhibited | – | – | little effect | – | – |
| Epigallocatechin 3-gallate [Epigallocatechin 3-gallate (EGCG)] | – | – | – | – | – | 68 (7) ^* % | 28 (5) ^* % | 4.5 µM | 35.4 µM | – | – | – | – | – | – | – |
| CC[C@H](C)[C@H](N)C1=N[C@H](C(=O)N[C@@H](CC(C)C)C(=O)N[C@H](CCC(=O)O)C(=O)N[C@H](C(=O)N[C@H]2CCCCNC(=O)[C@H](CC(N)=O)NC(=O)[C@@H](CC(=O)O)NC(=O)[C@H](Cc3cnc[nH]3)NC(=O)[C@@H](Cc3ccccc3)NC(=O)[C@H]([C@@H](C)CC)NC(=O)[C@@H](CCCN)NC2=O)[C@@H](C)CC)CS1 [Bacitracin A, bacitracin A] ({Ileψ(thiazoline)Cys}-L[dE]IK[dOrn]I[dF]H[dD]N; lactam 4-C) | – | > 500 µM | > 500 µM | > 500 µM | – | 81 (3) ^* % | 53 (12) ^* % | – | – | – | – | – | – | – | – | – |
| O=c1c(O[C@@H]2O[C@H](CO)[C@@H](O)[C@H](O)[C@H]2O)c(-c2ccc(O)c(O)c2)oc2cc(O)cc(O)c12 [Isoquercetin (IQ), isoquercetin] | 90 | 0.5 µM | 1.2 µM | 1.2 µM | 45.5 µM | 32 (5) ^* % | 13 (8) ^* % | – | – | – | – | – | – | – | – | – |
| COC(=O)C1(C)c2[nH]c3ccccc3c2CCN1C(=O)CCl (centres unmarked) [16F16] | – | – | – | – | – | 89 (6) % | 59 (6) ^* % | 5.1 µM | 15 µM | – | – | – | – | – | – | 5.8 µM |
| NC12CC3CC(CC(C3)C1)C2 [Amantidine, amantadine] | >83.3 | 1.2 µM | 1.4 µM | > 100 µM | > 100 µM | 102 (5) % | 103 (4) % | – | – | potently inhibited | – | – | – | little effect | – | – |
| PACMA31 | – | – | – | – | – | 91 (3) % | 71 (9) ^* % | 6.1 µM | 12.5 µM | – | – | – | dose-dependent | – | – | – |
